Experimental data reported in patent publication US11866430B2, “Naphthyridinone compounds useful as T cell activators” (priority 2018, dated 2024).
Like-named read-outs stand apart in the source and are kept apart here.

What was measured:
human DGKα = human DGKα (Homo sapiens (Human), UniProt P23743); experiment: biochemical; conditions: detergent/lipid micelle substrate; read-out: DGKα IC50
Protocol: (§1) The DGKα and DGKζ reactions were performed using either extruded liposome (DGKα and DGKζ LIPGLO assays) or detergent/lipid micelle substrate (DGKα and DGKζ assays). The reactions were carried out in 50 mM MOPS pH 7.5, 100 mM NaCl, 10 mM MgCl2, 1 μM CaCl2, and 1 mM DTT (assay buffer). The reactions using a detergent/lipid micelle substrate also contained 50 mM octyl B-D-glucopyranoside. […] The lipid substrate concentrations were […], 0.25 mM DAG, and 2.75 mM PC for the extruded liposome reactions.
(§2) The compound inhibition studies were carried out as follows: 50 nL droplets of each test compound (top concentration 10 mM with 11 point, 3-fold dilution series for each compound) solubilized in DMSO were transferred to wells of a white 1536 well plate (Corning 3725). A 5 mL enzyme/substrate solution at 2× final reaction concentration was prepared by combining 2.5 mL 4× enzyme solution (20 nM DGKα or DGKζ (prepared as described below) in assay buffer) and 2.5 mL of either 4× liposome or 4× detergent/lipid micelle solution (compositions described below) and incubated at room temperature for 10 minutes. Next, 1 μL 2× enzyme/substrate solution was added to wells containing the test compound and reactions were initiated with the addition of 1 μL 300 uM ATP. The reactions were allowed to proceed for 1 hr, after which 2 μL Glo Reagent (Promega V9101) was added and incubated for 40 minutes. Next, 4 μL Kinase Detection Reagent was added and incubated for 30 minutes. Luminescence was recorded using an EnVision microplate reader. […] The compounds were evaluated at 11 concentrations to determine IC50.
(§3) The detergent/lipid micelle was prepared by combining 15 g phosphatidylserine (Avanti 840035P) and 1 g diacylglycerol (800811O) and dissolving into 150 mL chloroform in a 2 L round bottom flask. Chloroform was removed under high vacuum by rotary evaporation. The resulting colorless, tacky oil was resuspended in 400 mL 50 mM MOPS pH 7.5, 100 mM NaCl, 20 mM NaF, 10 mM MgCl2, 1 μM CaCl2), 1 mM DTT, and 200 mM octyl glucoside by vigorous mixing. The lipid/detergent solution was split into 5 mL aliquots and stored at −80° C.
(§4) Human DGK-alpha-TVMV-His-pFBgate and human DCK-zeta-transcript variant-2-TVMV-His-pFBgate baculovirus samples were generated using the Bac-to-Bac baculovirus expression system (Invitrogen) according to the manufacturer's protocol. The DNA used for expression of DGK-alpha and DGK-zeta have SEQ ID NOs: 1 and 3, respectively. Baculovirus amplification was achieved using infected Sf9 cells at 1:1500 virus/cell ratios, and grown for 65 hours at 27° C. post-transfection.
(§5) The expression scale up for each protein was carried out in the Cellbag 50 L WAVE-Bioreactor System 20/50 from GE Healthcare Bioscience. 12 L of 2×10^6 cells/mL Sf9 cells (Expression System, Davis, Calif.) grown in ESF921 insect medium (Expression System) were infected with virus stock at 1:200 virus/cell ratios, and grown for 66-68 hours at 27° C. post-infection. The infected cell culture was harvested by centrifugation at 2000 rpm for 20 min 4° C. in a SORVALL® RC12BP centrifuge. The cell pellets were stored at −70° C. until purification.
(§6) Full length human DGKα and DGKζ, each expressed containing a TVMV-cleavable C-terminal Hexa-His tag sequence (SEQ ID NOs: 2 and 4, respectively) and produced as described above, were purified from Sf) baculovirus-infected insect cell paste. The cells were lysed using nitrogen cavitation method with a nitrogen bomb (Parr Instruments), and the lysates were clarified by centrifugation. […] The three steps column chromatography included nickel affinity resin capture (i.e. HisTrap FF crude, GE Healthcare), followed by size exclusion chromatography (i.e. HiLoad 26/600 Superdex 200 prep grade, GE Healthcare for DGK-alpha, and HiPrep 26/600 Sephacryl S 300_HR, GE Healthcare for DGK-zeta).

[1] = test system: pre-activated CD4 T cells and Raji cells; experiment: Raji CD4 T Cell IL2 Assay; type: cell-based
human DGKζ = human DGKζ (Homo sapiens (Human), UniProt Q13574); experiment: DGKζ assay (detergent/lipid micelle substrate); type: biochemical; conditions: detergent/lipid micelle substrate; read-out: DGKζ IC50
Protocol: as §1, §2, §3, §4, §5, §6

human DGKζ, sequence (Q13574 other isoform, or with tags, fused parts or gaps): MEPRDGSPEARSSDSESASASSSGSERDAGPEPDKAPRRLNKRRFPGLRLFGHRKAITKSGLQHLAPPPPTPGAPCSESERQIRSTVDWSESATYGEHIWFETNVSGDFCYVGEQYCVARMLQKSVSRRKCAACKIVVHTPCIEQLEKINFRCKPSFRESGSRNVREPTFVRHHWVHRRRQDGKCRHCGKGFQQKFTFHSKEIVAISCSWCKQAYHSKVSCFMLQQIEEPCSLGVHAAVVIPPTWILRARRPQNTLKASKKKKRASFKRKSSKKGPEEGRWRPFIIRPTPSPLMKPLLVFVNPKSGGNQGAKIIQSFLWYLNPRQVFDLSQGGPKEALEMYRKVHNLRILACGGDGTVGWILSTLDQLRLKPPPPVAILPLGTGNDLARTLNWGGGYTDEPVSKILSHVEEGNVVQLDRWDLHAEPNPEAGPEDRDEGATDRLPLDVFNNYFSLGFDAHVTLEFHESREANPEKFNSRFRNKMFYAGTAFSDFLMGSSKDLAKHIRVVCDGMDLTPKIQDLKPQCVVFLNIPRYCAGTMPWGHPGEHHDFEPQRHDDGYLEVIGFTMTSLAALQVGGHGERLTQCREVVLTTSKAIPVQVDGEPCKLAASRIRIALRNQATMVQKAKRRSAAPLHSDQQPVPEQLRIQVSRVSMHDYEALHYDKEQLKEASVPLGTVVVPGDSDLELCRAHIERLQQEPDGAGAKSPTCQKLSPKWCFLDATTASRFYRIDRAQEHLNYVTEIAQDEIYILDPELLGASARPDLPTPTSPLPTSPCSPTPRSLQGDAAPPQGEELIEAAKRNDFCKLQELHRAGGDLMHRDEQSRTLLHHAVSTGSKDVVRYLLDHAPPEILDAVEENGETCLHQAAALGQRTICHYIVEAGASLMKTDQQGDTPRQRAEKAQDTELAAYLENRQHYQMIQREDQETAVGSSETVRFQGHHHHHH
human DGKα, sequence (P23743 other isoform, or with tags, fused parts or gaps): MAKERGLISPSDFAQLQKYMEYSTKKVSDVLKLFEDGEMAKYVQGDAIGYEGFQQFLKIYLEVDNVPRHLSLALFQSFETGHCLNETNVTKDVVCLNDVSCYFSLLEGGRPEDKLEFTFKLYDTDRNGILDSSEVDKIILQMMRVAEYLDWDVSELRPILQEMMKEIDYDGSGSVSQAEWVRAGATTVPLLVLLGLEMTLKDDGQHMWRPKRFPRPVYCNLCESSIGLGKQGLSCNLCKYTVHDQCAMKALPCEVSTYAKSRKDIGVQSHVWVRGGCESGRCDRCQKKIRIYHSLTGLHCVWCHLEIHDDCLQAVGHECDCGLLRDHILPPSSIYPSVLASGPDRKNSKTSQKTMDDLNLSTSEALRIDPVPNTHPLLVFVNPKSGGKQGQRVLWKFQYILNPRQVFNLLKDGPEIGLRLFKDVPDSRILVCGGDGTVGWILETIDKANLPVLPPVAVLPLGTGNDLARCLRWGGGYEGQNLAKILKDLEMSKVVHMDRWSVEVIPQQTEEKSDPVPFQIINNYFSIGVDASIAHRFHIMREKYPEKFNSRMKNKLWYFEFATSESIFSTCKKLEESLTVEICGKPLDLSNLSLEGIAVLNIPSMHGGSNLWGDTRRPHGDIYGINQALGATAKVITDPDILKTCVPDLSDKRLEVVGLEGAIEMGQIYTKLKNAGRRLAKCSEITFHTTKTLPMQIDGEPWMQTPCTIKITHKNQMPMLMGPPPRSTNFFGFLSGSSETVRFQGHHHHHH

Compound	IC50 (human DGKα) [nM]	IC50 ([1]; Homo sapiens, Raji) [nM]	IC50 (human DGKζ) [nM]	IC50 [1] [nM]
Cc1ccc2c(n1)c(N1CCN(Cc3cc(Cl)ccc3O)CC1)c(C#N)c(=O)n2C [Example 296, 4-{4-[(5-chloro-2-hydroxyphenyl)methyl]piperazin-1-yl}-1,6-dimethyl-2-oxo-1,2-dihydro-1,5-naphthyridine-3-carbonitrile]	980	150	150000	
Cc1ccc2c(n1)c(N1CCN(Cc3cc(OC(F)(F)F)ccc3O)CC1)c(C#N)c(=O)n2C [Example 262, 4-(4-{[2-hydroxy-5-(trifluoromethoxy)phenyl]methyl}piperazin-1-yl)-1,6-dimethyl-2-oxo-1,2-dihydro-1,5-naphthyridine-3-carbonitrile]	520	28	> 240000	
COc1ccc(CN2CCN(c3c(C#N)c(=O)n(C)c4ccc(Cl)nc34)CC2)cc1 [Example 341, 6-chloro-4-{4-[(4-methoxyphenyl)methyl]piperazin-1-yl}-1-methyl-2-oxo-1,2-dihydro-1,5-naphthyridine-3-carbonitrile]	320	730	> 240000	
Cn1c(=O)c(Br)c(N2CCN(C(c3ccc(F)cc3)c3ccc(F)cc3)CC2)c2ncccc21 [Example 230, 4-(4-(bis(4-fluorophenyl)methyl)piperazin-1-yl)-3-bromo-1-methyl-1,5-naphthyridin-2(1H)-one]	8800	3600	> 240000	
Cn1c(=O)c(C#N)c(N2CCN(Cc3cc(F)cc(F)c3O)CC2)c2nc(Cl)ccc21 [Example 298, 6-chloro-4-{4-[(3,5-difluoro-2-hydroxyphenyl)methyl]piperazin-1-yl}-1-methyl-2-oxo-1,2-dihydro-1,5-naphthyridine-3-carbonitrile]	830	160	27000	
COc1cccc(O)c1CN1CCN(c2c(C#N)c(=O)n(C)c3ccc(Cl)nc23)CC1 [Example 264, 6-chloro-4-{4-[(2-hydroxy-6-methoxyphenyl)methyl]piperazin-1-yl}-1-methyl-2-oxo-1,2-dihydro-1,5-naphthyridine-3-carbonitrile]	620	36	> 240000	
Cn1c(=O)c(C#N)c(N2CCN(Cc3c(O)cccc3Cl)CC2)c2nc(Cl)ccc21 [Example 267, 6-chloro-4-{4-[(2-chloro-6-hydroxyphenyl)methyl]piperazin-1-yl}-1-methyl-2-oxo-1,2-dihydro-1,5-naphthyridine-3-carbonitrile]	310	48	> 240000	
Cn1c(=O)c(C#N)c(N2CCN(Cc3cccc4nc[nH]c34)CC2)c2nc(Br)ccc21 [Example 360]	48000	9600	> 240000	
C#CCn1c(=O)c([N+](=O)[O-])c(N2CCN(C(c3ccc(F)cc3)c3ccc(F)cc3O)CC2)c2nc(C#N)ccc21 (racemic) [Example 119, 8-(4-((4-fluoro-2-hydroxyphenyl)(4-fluorophenyl)methyl)piperazin-1-yl)-7-nitro-6-oxo-5-(prop-2-yn-1-yl)-5,6-dihydro-1,5-naphthyridine-2-carbonitrile]	970		190	
Cc1ccc2c(n1)c(N1CCN(C(c3ccc(F)cc3)c3ccc(F)cc3)CC1)c(F)c(=O)n2C [Example 234, 4-(4-(bis(4-fluorophenyl)methyl)piperazin-1-yl)-3-fluoro-1,6-dimethyl-1,5-naphthyridin-2(1H)-one]	16000	130		
Cn1c(=O)c(C#N)c(N2CCN(C(c3ccc(F)cc3)c3ccc(F)cc3O)CC2)c2nc(Cl)ccc21 (stereo not drawn) [Example 222, 6-chloro-4-(4-((4-fluoro-2-hydroxyphenyl)(4-fluorophenyl)methyl)piperazin-1-yl)-1-methyl-2-oxo-1,2-dihydro-1,5-naphthyridine-3-carbonitrile]	83	68		
C#CCn1c(=O)c(C#N)c(N2CCN(C(c3ccc(F)cc3)c3ccccc3O)CC2)c2nc(Br)ccc21 (racemic) [Example 105, 6-bromo-4-(4-((4-fluorophenyl)(2-hydroxyphenyl)methyl)piperazin-1-yl)-2-oxo-1-(prop-2-yn-1-yl)-1,2-dihydro-1,5-naphthyridine-3-carbonitrile]	580		2500	
Cn1c(=O)c(C#N)c(N2CCN(C(c3ccc(F)cc3)c3ccccc3O)CC2)c2nc(Br)ccc21 (single isomer, unassigned) [Example 9, 6-bromo-4-{4-[(4-fluorophenyl)(2-hydroxyphenyl)methyl]piperazin-1-yl}-1-methyl-2-oxo-1,2-dihydro-1,5-naphthyridine-3-carbonitrile]				> 100000
Cn1c(=O)c(C#N)c(N2CCN(C3CCc4cc(F)cc(O)c43)CC2)c2nc(Cl)ccc21 (stereo not drawn) [Example 201, 6-chloro-4-(4-(5-fluoro-7-hydroxy-2,3-dihydro-1H-inden-1-yl)piperazin-1-yl)-1-methyl-2-oxo-1,2-dihydro-1,5-naphthyridine-3-carbonitrile]		22000		
Cn1c(=O)c(C#N)c(N2CCN(C(c3ccc(F)cc3)c3ccccc3O)CC2)c2nc(Br)ccc21 (racemic) [Example 8, 6-bromo-4-{4-[(4-fluorophenyl)(2-hydroxyphenyl)methyl]piperazin-1-yl}-1-methyl-2-oxo-1,2-dihydro-1,5-naphthyridine-3-carbonitrile]		91		
COc1cc(F)ccc1C(c1ccc(F)cc1)N1CCN(c2c([N+](=O)[O-])c(=O)n(C)c3ccc(C#N)nc23)CC1 (racemic) [Example 123, 8-(4-((4-fluoro-2-methoxyphenyl)(4-fluorophenyl)methyl)piperazin-1-yl)-5-methyl-7-nitro-6-oxo-5,6-dihydro-1,5-naphthyridine-2-carbonitrile]	2300			
C#CCn1c(=O)c([N+](=O)[O-])c(N2CCN(C(c3ccc(F)cc3)c3ccc(F)cc3OC)CC2)c2nc(C#N)ccc21 (racemic) [Example 126, 8-(4-((4-fluoro-2-methoxyphenyl)(4-fluorophenyl)methyl)piperazin-1-yl)-7-nitro-6-oxo-5-(prop-2-yn-1-yl)-5,6-dihydro-1,5-naphthyridine-2-carbonitrile]	6100		330	
Cn1c(=O)c(C#N)c(N2CCN(C(c3ccc(F)cc3)c3ccccc3O)CC2)c2nc(Br)ccc21 (single isomer, unassigned) [Example 10, 6-bromo-4-{4-[(4-fluorophenyl)(2-hydroxyphenyl)methyl]piperazin-1-yl}-1-methyl-2-oxo-1,2-dihydro-1,5-naphthyridine-3-carbonitrile]				3
Cn1c(=O)c(C#N)c(N2CCN(Cc3cccc(Br)c3O)CC2)c2nc(Br)ccc21 [Example 380, 6-bromo-4-{4-[(3-bromo-2-hydroxyphenyl)methyl]piperazin-1-yl}-1-methyl-2-oxo-1,2-dihydro-1,5-naphthyridine-3-carbonitrile]	830		> 240000	
COc1ccc(CN2CCN(c3c(C#N)c(=O)n(C)c4ccc(Cl)nc34)CC2)c(O)c1 [Example 301, 6-chloro-4-{4-[(2-hydroxy-4-methoxyphenyl)methyl]piperazin-1-yl}-1-methyl-2-oxo-1,2-dihydro-1,5-naphthyridine-3-carbonitrile]			> 240000	
